Columns and labels:
[1] = tested on: radiation induced fibrosarcoma (RIF) tumors; test: BPD-mediated vascular PDT of RIF tumors: explicit dosimetry and tumor regrowth (cure index); type: in vivo, mice
Experimental: RIF cells were cultured and 30 μl were injected at 1×10^7 cells/ml intradermally over the right shoulders of 6 to 8 weeks old female C3H mice (NCI-Frederick, Frederick, Maryland), as described previously^10-12. Animals were under the care of the University of Pennsylvania Laboratory Animal Resources. All studies were approved by the University of Pennsylvania Institutional Animal Care and Use Committee. Tumors were treated at a size of ˜3 to 5 mm in diameter. Fur within the region of tumor inoculation was clipped prior to injection of cells, and the treatment area was depilated with Nair (Church & Dwight Co., Inc., Ewing, New Jersey) at least 24 h before measurements. Mice were provided a chlorophyll-free (alfalfa-free) rodent diet (Harlan Laboratories Inc., Indianapolis, Indiana) starting at least 10 days prior to treatment to eliminate the fluorescence signal from chlorophyll-breakdown products, which have a similar emission range to the BPD fluorescence spectra used to determine the concentration of BPD in the tumor. During the delivery of PDT, mice were kept under anesthesia on a heat pad at 38° C.
PDT was delivered using an optical fiber with a microlens attachment coupled to a diode laser. A 690 nm laser (B&W Tek Inc., Newark, Delaware) was used for PDT after a 15 min drug-light interval. The in-air fluence rate (ϕair) is defined as the calculated irradiance determined by the laser power divided by the treatment area (1 cm diameter spot size). The in-air fluence was calculated by multiplying the in-air fluence rate by the treatment time. […]
The in vivo tissue oxygen partial pressure pO2 was measured during PDT treatment using a phosphorescence-based […] (OxyLite Pro, Oxford Optronix, Oxford, United Kingdom). […] The ROS concentration ([ROS]) was calculated by multiplying the measured pO2 with the […] solubility in tissue, which is 1.295 μM/mmHg.^5 Measured [ROS]0 and [ROS](t) were used to calculate reacted oxygen species using the macroscopic singlet oxygen model.^14,15 […]
Tumor volumes were measured daily after PDT. […]

[2] = as printed in b218; cited from earlier work

change of BPD concentration before vs after PDT treatment ([1]; in tumor, FIG. 18): not significant changes
SMILES: C=Cc1c(C)c2cc3nc(cc4[nH]c(cc5nc(cc1[nH]2)C(C)=C5CCC(=O)O)c(CCC(=O)OC)c4C)[C@@]1(C)C3=CC=C(C(=O)OC)[C@H]1C(=O)OC [BPD, benzoporphyrin derivative monoacid ring A]
[ROS]rx threshold dose smaller than value for conventional BPD-mediated PDT using DLI of 3 hrs ([1]; mouse, in vivo): about 4.3 times
threshold dose for [ROS]rx ([1]; vascular BPD-PDT, DLI 15 min): 0.23 mM
β [2]: 11.9 µM

Reference: US12324927B2, “Methods and systems for photodynamic therapy calculations” (THE TRUSTEES OF THE UNIVERSITY OF PENNSYLVANIA, priority 2018, dated 2025)
